Molecules are shown by their SMILES. Active and inactive are the calls of the source.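 The calls were made as follows: active = EC50 no more than a set limit of log units above the highest dose; inactive = the rest.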

The assay addresses S. pyogenes SKKanGAS, kanamycin survival, BacTiterGlo, 6 h. The assay is described as follows: S. pyogenes SKKanGAS kanamycin growth inhibitors – SKKanGAS strain, luminescence, dose confirmation, streptokinase promoter inhibitor project, dose response (AID 1902).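 Also: lower survival reflects blocked streptokinase promoter driving kanamycin resistance gene.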
As usually defined, the EC50 is the midpoint of the concentration-response curve. Regarding `O=C(NC(c1ccccc1)c1cc(Cl)c2cccnc2c1O)c1cccnc1` (stereo not given), the EC50 is 1380 nM.

Turning to `Nc1nc(CN2CCN(c3ccccc3)CC2)nc(N2CCCc3ccccc32)n1`, the EC50 was 879 nM.

Take `C=CC1=C(C(=O)O)N2C(=O)C(NC(=O)Cc3ccccc3)C2SC1` (stereo not given): the EC50 is 130 nM.

Consider `O=C(/C(N=Nc1cccc([N+](=O)[O-])c1)=C(/O)c1ccc(Br)cc1)C(F)(F)F`, for which the EC50 is 4280 nM.

Consider `Cc1ccccc1OCC(=O)NNC(=S)NC(=O)c1ccco1`, for which the EC50 was 338 nM.

Turning to `O=C(Nc1ccc([N+](=O)[O-])cc1)Nc1nc(-c2ccc(Cl)s2)cs1`, the EC50 is 2950 nM.

Regarding `CCCc1sc(N/N=C/c2ccccn2)nc1-c1ccc(Br)cc1`, the EC50 was 241 nM.

On to `Cc1cc(C)c2c(n1)sc1c(=O)n(CC(=O)c3ccccc3)cnc12`, for which the EC50 is 1550 nM.

`CCC(C)Nc1nc(N)c([N+](=O)[O-])c(Nc2cc(OC)ccc2OC)n1` (stereo not given): the EC50 is 1950 nM.

With `COc1ccccc1NC(=O)C(=O)NNC(=O)COc1ccc2ccccc2c1`, the EC50 is 2200 nM.

Take `CNC(CC(C)C)C(=O)NC1C(=O)NC(CC(N)=O)C(=O)NC2C(=O)NC3C(=O)NC(C(=O)NC(C(=O)O)c4cc(O)cc(O)c4-c4cc3ccc4O)C(O)c3ccc(c(Cl)c3)Oc3cc2cc(c3OC2OC(CO)C(O)C(O)C2OC2CC(C)(N)C(O)C(C)O2)Oc2ccc(cc2Cl)C1O` (stereo not given): the EC50 was 169 nM.

Consider `COc1ccc(-c2csc(Nc3ccc(S(=O)(=O)Nc4cc(C)on4)cc3)n2)cc1C`, for which the EC50 was 6440 nM.

Take `COc1ccc(C(=O)/C=C/c2ccc(-c3ccccc3)cc2)cc1CSCC(=O)O`: the EC50 was 5510 nM.

Consider `Cc1ccc(C(=O)NNC(=S)NC(=O)c2ccccc2)cc1`, for which the EC50 is 955 nM.

On to `Cc1c(N/N=C(\C#N)C(=O)c2ccccc2)c(=O)n(-c2ccccc2)n1C`, for which the EC50 was 1440 nM.

As for `COC(=O)C(Nc1ccccc1Cl)(c1cc(C)c(O)c(C)c1)C(F)(F)F` (stereo not given), the EC50 is 2500 nM.

As to `COc1cccc(NC(=S)NN=C2CCCCCC2)c1`, the EC50 is 1770 nM.

As for `CCCCCCSc1cc(-c2nc3cnccn3c2NCc2ccccc2)ccc1OC`, the half-maximal effective concentration (EC50) was 3610 nM.

As to `Cc1ccc(C2C(C(=O)c3cc4ccccc4o3)=C(O)C(=O)N2c2cc(C)on2)cc1` (stereo not given), the EC50 was 2100 nM.

Take `Cc1cc(NC(=O)CN2C(=O)c3ccccc3C2=O)no1`: the EC50 was > 15000 nM (inactive).

On to `Cc1[nH]n(-c2ccccc2)c(=O)c1/C=N/NC(=O)c1cccc(F)c1`, for which the EC50 is 3440 nM.

In the case of `COc1ccc(NC(=S)Nc2nc(CC(=O)Nc3ccccc3OC)cs2)cc1`, the EC50 is 8890 nM.

Consider `CCN1CCN(Cc2ccc(NC(=O)c3ccc(C)c(/C=C/c4cnc(Nc5cc(N6CCNCC6)nc(C)n5)cn4)c3)cc2C(F)(F)F)CC1`, for which the EC50 was 8410 nM.

For the molecule `O=C1C(Nc2ccc(O)cc2)=C/C(=N/S(=O)(=O)c2cccs2)c2ccccc21`, the EC50 was 1970 nM.

For `O/N=C(\c1ccc(Cl)cc1Cl)c1ncc(C(F)(F)F)cc1Cl`, the 50% effective concentration (EC50) was 2740 nM.

On to `O=[N+]([O-])c1ccc(O)c(-c2cc(C(F)(F)F)nc(-c3ccccc3)n2)c1`, for which the EC50 was 205 nM.

`Nc1nc(CN2CCC(Cc3ccccc3)CC2)nc(Nc2ccccc2)n1`: the EC50 is 1950 nM.

With `CCOC(=O)c1c(NC(=O)c2cccs2)sc(CC)c1-c1cccs1`, the EC50 is 13100 nM.

For `Cc1cc(C(C#N)c2ccc(Cl)cc2)c(Cl)cc1NC(=O)c1cc(I)cc(I)c1O` (stereo not given), the EC50 is 82 nM.

Consider `CCCCCCCCOC(=O)/C=C/c1c(C)[nH]c(=O)[nH]c1=O`, for which the EC50 was 788 nM.

As to `CCSc1nnc(NC(=O)c2ccccn2)s1`, the EC50 was 4000 nM.

As to `Cn1c(-c2c(N)n(C3CCCC3)c3nc4ccccc4nc23)nc2ccccc21`, the EC50 is 1120 nM.

As for `CC(C)Oc1ccc(C(=O)Nc2nc3ccccc3[nH]2)cc1`, the EC50 was 1410 nM.

In the case of `Cc1ccc(C)c(CN2CCCN(Cc3cc(C)ccc3C)S2(=O)=O)c1`, the EC50 was 2580 nM.

As for `Cc1ccc(C(=O)N/N=C/c2ccc([N+](=O)[O-])s2)cc1`, the EC50 is 14000 nM.

For the molecule `CC1(C)CC(=O)C2=C(C1)c1c(ccc3ccccc13)NC2c1cc([N+](=O)[O-])cc([N+](=O)[O-])c1O` (stereo not given), the concentration for a half-maximal effect (EC50) is 4550 nM.

On to `COc1ccc(-c2ncn(CCC#N)c2[N+](=O)[O-])cc1`, for which the EC50 is 2720 nM.

For the molecule `FC(F)(F)c1ccc(C2[C@H]3CN(Cc4cccnc4)[C@H](c4ccccc4)C34CC2(c2cccnc2)C4)cc1` (stereo not given in full), the EC50 is 5150 nM.

With `CN1CCN(C2=Cc3ccc(Cl)cc3Sc3ccc(F)cc32)CC1`, the EC50 was 4610 nM.

As to `FC(F)(F)c1cccc(NC(=S)Nc2ccc(Cl)cc2Cl)c1`, the concentration for a half-maximal effect (EC50) was 2830 nM.

Take `CCOc1ccc(N=Nc2ccc(O)c3ncccc23)cc1`: the EC50 was 186 nM.

Take `C[C@H](CCC(=O)NCC(=O)O)[C@H]1CC[C@H]2C3[C@H](O)C[C@@H]4C[C@H](O)CC[C@]4(C)[C@H]3C[C@H](O)[C@]12C` (stereo not given in full): the EC50 was > 15000 nM (inactive).

Turning to `COc1ccc(Nc2ncnc3scc(-c4ccc(OC)cc4)c23)cc1`, the EC50 is > 15000 nM (inactive).

As to `CC1(C(=O)NC(=S)NNC(=O)c2ccncc2)CCCCC1`, the 50% effective concentration (EC50) is 1100 nM.

Take `O=S(=O)(Nc1cccc(-c2ccc(N3CCOCC3)nn2)c1)c1ccc(Cl)c(Cl)c1`: the EC50 was 9660 nM.

Regarding `CC/C(=C\C1CCCCC1)C(NP(=O)(c1ccccc1)c1ccccc1)c1ccccc1` (stereo not given), the EC50 was 1140 nM.

As for `CCOC(=O)c1c(NC(=O)COC(=O)c2ccc(C)s2)sc2c1CC(C)(C)NC2(C)C`, the EC50 was 3700 nM.

For `Cc1cc(C)c2sc(NNC(=O)c3ccc(S(=O)(=O)N4CCc5ccccc5C4)cc3)nc2c1`, the EC50 is 1060 nM.

On to `c1ccc(-c2onc(-c3ccco3)c2-c2ccc3[nH]ccc3c2)cc1`, for which the EC50 is 4200 nM.

As to `Cc1ccc(-n2[nH]c(C)c(/C=N/NC(=O)c3cccc([N+](=O)[O-])c3)c2=O)cc1C`, the EC50 is 1150 nM.

Turning to `CC(C)(C)c1cc[n+](C2=C([O-])c3ccccc3C(=O)/C2=N\S(=O)(=O)c2ccccc2)cc1`, the EC50 was 3200 nM.

For `Cc1ccc(CNC(=S)NC2CCC(C(C)(C)C)CC2)cc1` (stereo not given), the concentration for a half-maximal effect (EC50) was 3400 nM.

Take `N#Cc1nc(-c2ccccc2Cl)oc1N1CCN(C(=O)c2ccco2)CC1`: the EC50 was > 15000 nM (inactive).

Take `C=C(C)COc1ccc(-c2[nH]ncc2Oc2cccc(OC)c2)c(O)c1`: the EC50 is 5930 nM.

For `O=C(CNC(=O)c1ccc(F)cc1)N/N=C/c1cc(Br)ccc1OCc1ccccc1`, the EC50 was 12200 nM.

For `Cc1ccc(C(=O)N2CCOCC2)cc1S(=O)(=O)N1CCOCC1`, the EC50 is > 15000 nM (inactive).

`CC1CCN(c2nc(N3CCCCC3)nc(N3CCCCC3)n2)CC1`: the EC50 is 3020 nM.

`COc1ccc(/C=C2\Sc3ccc(C(=O)N4CCCC4)cc3N(C)C2=O)cc1OC`: the EC50 was 515 nM.

Turning to `COc1ccc(CCNC(=O)c2cccc(NS(=O)(=O)c3ccccc3F)c2)cc1OC`, the EC50 is > 15000 nM (inactive).

As for `CCC1(C)Cc2ccccc2-c2nc(-c3ccccc3)oc(=O)c21` (stereo not given), the EC50 was 5510 nM.

Consider `C/C(=N\Nc1nc2ccc(Cl)cc2o1)c1ccccc1`, for which the EC50 is 2330 nM.

In the case of `CCOC(=O)c1nc(Nc2ccc(Nc3ccccc3)cc2)c2ccccc2n1`, the EC50 is 9840 nM.

Consider `COc1cc(/C=C/C(=O)OC2CC3CCC2(C)C3(C)C)ccc1O` (stereo not given), for which the EC50 is 7080 nM.

Take `Cc1cccc2sc(NNC(=O)c3ccc(S(=O)(=O)N4CCc5ccccc5C4)cc3)nc12`: the EC50 was 368 nM.

On to `Cc1ccc(/C=C2/Sc3ccc(C(=O)N4CCC5(CC4)OCCO5)cc3NC2=O)cc1`, for which the EC50 is 5880 nM.

As to `CC(Oc1ccc(Br)cc1)C(=O)Nc1nc(-c2ccccn2)cs1` (stereo not given), the EC50 is below 60 nM.

`COc1cc(C(=O)NS(=O)(=O)c2ccccc2C)ccc1Cc1cn(C)c2ccc(NC(=O)OC3CCCC3)cc12`: the EC50 is 2050 nM.

For the molecule `Cc1ccc(Nc2c(-c3ccccn3)nc3cccc(C)n23)cc1`, the EC50 is 322 nM.

As to `COc1cccc(C2C3=C(N=c4s/c(=C\c5cccc(O)c5)c(=O)n42)c2ccccc2CC3)c1OC` (stereo not given), the EC50 is 5370 nM.

On to `COc1cc(/C=N/NC(=O)c2cc(-c3c(C)nn(-c4ccccc4)c3C)n[nH]2)ccc1O`, for which the EC50 is 2970 nM.

Consider `Cc1nn(Cc2ccccc2Cl)c2sc(C(=O)Nc3ccccc3N3CCOCC3)cc12`, for which the 50% effective concentration (EC50) is 2920 nM.

As to `Cc1cc(Nc2ccccc2)nn1C(=O)c1ccc(Br)cc1`, the EC50 was 14600 nM.

With `Cc1[nH]n2c(=O)cc(-c3ccc([N+](=O)[O-])cc3)nc2c1-c1ccccc1`, the EC50 is 319 nM.

With `O=C(NNC(=S)NC(=O)c1ccco1)c1ccc(NC(=O)c2ccccc2)cc1`, the half-maximal effective concentration (EC50) was 1210 nM.

Regarding `CC1(C)COCN1S(=O)(=O)c1ccc(C(=O)Nc2nnc(-c3ccc(Cl)s3)o2)cc1`, the EC50 was 459 nM.

For `CCCCCn1c(CN2CCN(c3cc(Cl)ccc3C)CC2)nc2c1c(=O)[nH]c(=O)n2C`, the EC50 is 2500 nM.

Take `Cc1cc(C)n(-c2nc(NCCCO)c3c4c(sc3n2)CCCC4)n1`: the EC50 is 2200 nM.

Turning to `O=C(Nc1ccccc1Cc1ccccc1)c1ccccc1NS(=O)(=O)c1ccc(Cl)s1`, the EC50 is 590 nM.

`Nc1nc(-c2ccccc2)c(N=Nc2cccc3ccccc23)s1`: the half-maximal effective concentration (EC50) is 4000 nM.

Consider `COc1ccc(Oc2nc(C(F)(F)F)nc3ccccc23)cc1`, for which the EC50 is 7140 nM.

As for `CN(C)c1nc(N/N=C/c2ccccc2O)nc(Nc2ccc(F)cc2)n1`, the EC50 is 3790 nM.

For `O=c1[nH]c(NNC(=S)NC2CCCCC2)nc2c1C1(CCCC1)Cc1ccccc1-2`, the EC50 is 1350 nM.

With `C#C[C@]1(O)CC[C@H]2[C@@H]3CCc4cc(OC5CCCC5)ccc4[C@H]3CC[C@@]21C`, the EC50 was 2600 nM.

In the case of `Cc1ccc(CN(C(=O)c2ccco2)C2CCS(=O)(=O)C2)cc1` (stereo not given), the EC50 is > 15000 nM (inactive).

With `COc1ccc(NC(=S)NC(NC(=O)c2ccc(Cl)cc2Cl)C(Cl)(Cl)Cl)c([N+](=O)[O-])c1` (stereo not given), the concentration giving a half-maximal response (EC50) was 1150 nM.

Turning to `O=[N+]([O-])/C=C/c1c(OCc2ccccc2)ccc2ccccc12`, the EC50 was 1630 nM.

Regarding `Brc1cc(-c2ccccc2)nc(-c2ccccc2)n1`, the EC50 was 12100 nM.

With `CC(C)Cn1c2c(c(O)c(C(=O)Nc3ncccc3O)c1=O)CCCC2`, the EC50 was 2350 nM.

For the molecule `O=C(CC(=O)c1cc(Cl)ccc1O)c1ccccc1`, the EC50 was 1010 nM.

For `Cc1cc(C(=O)N/N=C/c2ccc([N+](=O)[O-])s2)n[nH]1`, the EC50 is 2390 nM.

For the origin of these results see PubChem BioAssay AID1902 (Broad Institute, 2009).
